What was measured:
Assay type in all cases: cell-based
mouse neutrophils = test: Ca2+ mobilization in mouse neutrophils; settings: Neutrophil, read-out: EC50, Ca2+ mobilization, Mouse PMN
human neutrophils = test: Ca2+ mobilization in human neutrophils
FPR2 = biological target: T1, FPR2 (Homo sapiens, UniProt P25090); test: Ca2+ mobilization in FPR2-transfected HL-60 cells
T1 sequence (P25090 1-351): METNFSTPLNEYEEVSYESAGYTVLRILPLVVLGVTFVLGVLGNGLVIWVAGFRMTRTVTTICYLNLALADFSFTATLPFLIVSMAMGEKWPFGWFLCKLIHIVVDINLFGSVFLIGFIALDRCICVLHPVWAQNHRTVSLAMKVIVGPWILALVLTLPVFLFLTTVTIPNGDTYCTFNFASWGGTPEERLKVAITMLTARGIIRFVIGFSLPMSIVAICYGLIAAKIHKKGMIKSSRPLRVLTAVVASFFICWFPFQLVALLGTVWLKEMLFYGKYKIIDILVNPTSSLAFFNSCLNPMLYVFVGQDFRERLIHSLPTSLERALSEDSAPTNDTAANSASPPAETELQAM

FPR1 = biological target: T2, FPR1 (Homo sapiens, UniProt P21462); test: Ca2+ mobilization in FPR1-transfected HL-60 cells
T2 sequence (P21462 1-350): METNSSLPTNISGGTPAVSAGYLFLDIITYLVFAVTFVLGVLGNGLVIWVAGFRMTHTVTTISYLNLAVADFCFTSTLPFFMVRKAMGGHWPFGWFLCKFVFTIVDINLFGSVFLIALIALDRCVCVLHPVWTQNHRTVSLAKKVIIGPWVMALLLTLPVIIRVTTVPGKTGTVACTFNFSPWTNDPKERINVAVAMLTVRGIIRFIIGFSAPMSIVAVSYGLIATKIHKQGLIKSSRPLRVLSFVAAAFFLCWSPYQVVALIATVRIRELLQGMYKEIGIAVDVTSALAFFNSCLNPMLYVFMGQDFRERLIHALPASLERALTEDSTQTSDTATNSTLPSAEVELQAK

Row | SMILES | EC50 (mouse neutrophils) | Ca2+ mobilization in human neutrophils (in words) (human neutrophils) | activation of FPR2 in FPR2-HL60 cells and in human neutrophils (in words) (FPR2) | Ca2+ mobilization in FPR1-HL60 cells (in words) (FPR1) | difference in potency between enantiomers in activation of human neutrophils (human neutrophils; (S)-9a vs (R)-9a) | Efficacy, Ca2+ mobilization, Human PMN (w/o probenecid) (human neutrophils; without probenecid, normalized to 5 nM fMLF = 100%)
1 | COc1ccc(NC(=O)N[C@H](Cc2c[nH]c3ccccc23)C(=O)NCC2(c3ccc(OC)cn3)CCCCC2)cc1 [(R)-9a, (R)-3-(1H-Indol-3-yl)-2-[3-(4-methoxyphenyl)ureido]-N-[[1-(5-methoxy-2-pyridinyl)cyclohexyl]methyl]propanamide] | 4.9 ± 1.4 µM |  |  |  |  | 
2 | COc1ccc(NC(=O)N[C@H](Cc2c[nH]c3ccccc23)C(=O)NCC2(c3ccnc(F)c3)CCCCC2)cc1 [(R)-9b] | 2.3 ± 0.73 µM | not able to induce Ca^2+ mobilization | inactive |  |  | 
3 | COc1ccc(NC(=O)N[C@H](Cc2c[nH]c3ccccc23)C(=O)NCC2(c3ccccc3)CCCCC2)cc1 [(R)-9c, (R)-3-(1H-Indol-3-yl)-2-[3-(4-methoxyphenyl)ureido]-N-[(1-phenylcyclohexyl)methyl]propanamide] | 3.8 ± 1.3 µM | only in the presence of probenecid |  | unable to stimulate Ca^2+ mobilization |  | 
4 | COc1ccc(NC(=O)N[C@H](Cc2c[nH]c3ccccc23)C(=O)NCC2(c3cccnc3)CCCCC2)cc1 [(R)-9d, (R)-3-(1H-Indol-3-yl)-2-[3-(4-methoxyphenyl)ureido]-N-[[1-(3-pyridinyl)cyclohexyl]methyl]propanamide] | 2.1 ± 0.58 µM | not able to induce Ca^2+ mobilization |  |  |  | 
5 | COc1ccc(NC(=O)N[C@H](Cc2c[nH]c3ccccc23)C(=O)NCC2(c3ccccn3)CCCCC2)cc1 [(R)-9e, (R)-3-(1H-Indol-3-yl)-2-[3-(4-methoxyphenyl)ureido]-N-[[1-(2-pyridinyl)cyclohexyl]methyl]propanamide] | 1 ± 0.27 µM |  |  |  |  | 
6 | COc1ccc(NC(=O)N[C@H](Cc2c[nH]c3ccccc23)C(=O)NCC2(c3ccc(F)cc3)CCCCC2)cc1 [(R)-9f, (R)-N-[[1-(4-Fluorophenyl)cyclohexyl]methyl]-3-(1H-indol-3-yl)-2-[3-(4-methoxyphenyl)ureido]propanamide] | 2.5 ± 0.42 µM | not able to induce Ca^2+ mobilization | inactive |  |  | 
7 | COc1ccc(NC(=O)N[C@@H](Cc2c[nH]c3ccccc23)C(=O)NCC2(c3ccc(OC)cn3)CCCCC2)cc1 [(S)-9a, (S )-3-(1H-indol-3-yl)-2-[3-(4-methoxyphenyl)ureido]-N -[[1-(5-methoxy-2-pyridinyl)cyclohexyl]methyl]propanamide] | 0.24 ± 0.07 µM |  |  | stimulated Ca^2+ mobilization | > 14 fold | 100%
8 | COc1ccc(NC(=O)N[C@@H](Cc2c[nH]c3ccccc23)C(=O)NCC2(c3ccnc(F)c3)CCCCC2)cc1 [(S)-9b] | 1.7 ± 0.44 µM |  | active | unable to stimulate Ca^2+ mobilization |  | 
9 | COc1ccc(NC(=O)N[C@@H](Cc2c[nH]c3ccccc23)C(=O)NCC2(c3ccccc3)CCCCC2)cc1 [(S)-9c, (S)-3-(1H-Indol-3-yl)-2-[3-(4-methoxyphenyl)ureido]-N-[(1-phenylcyclohexyl)methyl]propanamide] | 2.5 ± 0.61 µM | not able to induce Ca^2+ mobilization |  |  |  | 
10 | COc1ccc(NC(=O)N[C@@H](Cc2c[nH]c3ccccc23)C(=O)NCC2(c3cccnc3)CCCCC2)cc1 [(S)-9d, (S)-3-(1H-Indol-3-yl)-2-[3-(4-methoxyphenyl)ureido]-N-[[1-(3-pyridinyl)cyclohexyl]methyl]propanamide] | 3.9 ± 1.5 µM |  | able to activate FPR2 | unable to stimulate Ca^2+ mobilization |  | 
11 | COc1ccc(NC(=O)N[C@@H](Cc2c[nH]c3ccccc23)C(=O)NCC2(c3ccccn3)CCCCC2)cc1 [(S)-9e, (S)-3-(1H-Indol-3-yl)-2-[3-(4-methoxyphenyl)ureido]-N-[[1-(2-pyridinyl)cyclohexyl]methyl]propanamide] | 2.8 ± 0.64 µM |  |  | stimulated Ca^2+ mobilization |  | 
12 | COc1ccc(NC(=O)N[C@@H](Cc2c[nH]c3ccccc23)C(=O)NCC2(c3ccc(F)cc3)CCCCC2)cc1 [(S)-9f, (S)-N-[[1-(4-Fluorophenyl)cyclohexyl]methyl]-3-(1H-indol-3-yl)-2-[3-(4-methoxyphenyl)ureido]propanamide] | 2.3 ± 0.35 µM | only in the presence of probenecid | active | unable to stimulate Ca^2+ mobilization |  | 

Reference: publication PMC4466095 (Bioorganic & medicinal chemistry, 2014)
